From US12084422B2, “Phenyl-n-quinoline derivatives for treating a RNA virus infection” (ABIVAX, priority 2018, dated 2024) come the findings set out here.

Molecules are shown by their SMILES.

Experiment [1] concerns RSV A2. As to the kind of experiment: Screening for RSV inhibition using Viral ToxGlo assay in HEp-2 cells. The format is cell-based. The following applies: human respiratory syncytial virus, HEp-2, 72 h. As for the experimental part: Protocol for Screening Antiviral Compounds for RSV Inhibition and Cytotoxicity Using Viral ToxGlo Assay
HEp-2 cells were maintained in Eagle's minimum essential medium (EMEM) with Earle's BSS adjusted to contain 2 mM L-glutamine, 10% fetal bovine serum, 100 U/ml penicillin and 100 μg/ml streptomycin. For the purposes of the screening assay they were grown to 90% confluency, trypsinized and recovered. The trypsin was neutralised with cell culture media and cells were centrifuged at 150×g for 5 minutes before discarding the supernatant and resuspending cell pellet in assay media (EMEM with Earle's BSS adjusted to contain 2 mM L-glutamine, 2% fetal bovine serum and 100 U/ml penicillin and 100 μg/ml streptomycin). The cells were seeded into white clear-bottomed cell culture plates at a density of 1.5×10^4 cells/well in 50 μl and 4×10^3 cells/well in 25 μl for 96 well plates and 384 well plates respectively. For the media/background control column assay media only was added. Cell plates were placed in a humid chamber and incubated overnight at 37° C./5% CO2. After overnight incubation cells were checked for confluency and healthy appearance.
Test articles were made up at 10× test concentration in a maximum DMSO concentration of 10% (final assay concentration maximal 1% DMSO) and added to the cell plates in volumes of 10 μl for 96 well plates and 5 μl for 384 well plates. For cell control and virus control wells the test article solvent only was added. Virus or assay media for cytotoxicity test wells and media/cell control wells was added immediately after test articles at an MOI of 0.5, 40 or 20 μl for 96 and 384 well plates respectively. Virus suspension was prepared by thawing RSV A2 frozen stocks and diluting to the required concentration of plaque forming units in assay media on ice.
Cell plates were further incubated inside a humid chamber for 72 h p.i at 37° C./5% CO2. After the incubation period cells were observed under the microscope to check for characteristic cytopathic effect in virus control wells and healthy cells in the cell control wells. After plates were adjusted to room temperature 20/40 μl Viral ToxGlo (Promega) was added to each well of the 384/96 well cell plates. Plates were incubated at room temperature, protected from light on a plate rocker for 20 minutes before measuring the luminescence on a spectrophotometer (Biotek Synergy HTX).
RSV inhibition was calculated as percentage of cytopathic effect inhibition relative to the virus control and cytotoxicity as percentage of cell survival relative to cell control wells. This allowed EC50 values to be calculated for each test article where a virus inhibition or cytotoxic dose response was identified. EC50 values ranging between 0.001 µM and 5 μM could thus be determined for compounds 1, 6, 10, 13, 28, 38, 43, 47, 48, 49, 50, 51, 52, 53, 54, 55, 56 and 57.

The test system of experiment [2] is Chikungunya Virus (CHIKV) strain LR2006-OPY1 with GFP modification (CHIK 5'LR). The experiment in a line: Inhibition of Chikungunya virus (CHIKV) production in infected HEK293T cell line (GFP fluorescence). In kind it is cell-based. To be noted: HEK-293T, infected HEK293T cells; for inhibition at 1 µM: compounds at 1 μM, MOI 0.1, 22 h, values above 100 lowered to 100, read-out: % CHIKV Inhibition Mean (n = 2); for IC50: second round of experiments. As for the experimental part:
The ability of the compounds to inhibit viral replication was assessed with an experiment in which infected cells were treated by compounds of formula (I) at 1 μM. As a positive control for inhibition of Chikungunya, Ribavirin was used. Toxicity of the compounds was assessed in parallel.
Human embryonic kidney cells 293T (HEK293T, CRL-11268) were maintained in Dulbecco's modified Eagle's Medium (DMEM, 31966-021, Thermo Fisher Scientific) supplemented with 10% of fetal bovine serum (FBS), penicillin and streptomycin. After removal of the medium, cells were washed with a Ca^2+- and Mg^2+-free salt solution to remove all traces of serum. After aspiration of wash solution, cells were dissociated with 0.25% Trypsin-EDTA solution and incubated 30 s at least in 37° ° C. incubator. Concentration of cell suspension was determined by an automatic cell counter (EVE, NanoEntek) and, if needed, adjusted to 0.33×10^6 cells/mL with DMEM medium supplemented with 10% FBS.
100 μL of the cell suspension were dispatched in a ViewPlate-96 Black (6005182, PerkinElmer) and in a transparent 96-well cell culture plate (655180, Greiner bio-one). After an incubation for 24 h at 37° C. under 5% of CO2, compounds were added at the proper concentration.
An intermediate dilution was prepared with DMSO (D8418, Sigma) at 2 mM in a 96-well V-bottom microplate from the stock solution:
Mix 1 μL of the 50 mM stock library in 25 μL of DMSO.
Mix 2 μL of the 25 mM stock library in 25 μL of DMSO.
An intermediate dilution was prepared with DMSO (D8418, Sigma) at 25 mM in a 96-well V-bottom microplate from the stock solution:
Mix 2 μL of the 50 mM stock library in 2 μL of DMSO.
Serial dilutions were performed in 2 μL of DMSO 13 times to reach 0.0015 mM as follows in table III:
For both screen and determination of IC50 1 μL of each solution was added in a 1 mL Masterblock 96 wells (Greiner bio-one, 780261) containing 1 mL of DMEM medium. As a positive control, 5 μL of a 80 mM Ribavirin solution (R9644, Sigma) is added to 1 mL of DMEM. On the other hand, DMSO is used as a negative control.
[…]. Vector Borne Zoonotic Dis. 2006; 6(4)). This modified virus was used to infect cells at MOI 0.1. […].
Medium was removed after 22 h at 37° ° C. under 5% of CO2 and cells were washed as described above. 60 μL of RIPA buffer (50 mM Tris-HCl pH8, 100 mM NaCl, 1 mM MgCl2, 1% Triton X-100) was added to cells and incubated for at least 20 min before reading fluorescence signal. Pierce 660 nm Protein Assay Reagent (22660, Thermo scientific) was used to normalize fluorescence signal by protein quantity.
A first round of experiments has been performed wherein the results are expressed as inhibition percentage, which is calculated as follows, through the following steps:
1. Fluorescence intensity (FI) 509 nm/Absorbance 660 nm (A660)=A
This ratio allows considering the infection (GFP virus) to the protein amount.
2. A′=A—background noise of non-infected plate,
3. B=Fluorescence intensity (FI)/Absorbance 660 nm (A660) of infected but non treated plates,
4. C=A′/B which is then converted as the percentage of infection after treatment, compared to non-treated sample, and subsequently as the […]. For instance, a value of 100 in Table IV here below means that, after treatment, the signal attributed to GFP fluorescence is abolished, which is correlated to the absence of infection.
This value corresponds to the inhibition's percentage.
The following Table IV encompasses said C′ value for some compounds as calculated above with a mean of 2 experiments, and the corresponding standard deviation.
Some values were originally above 100. In these cases, the value has been lowered to 100. This means that some molecules also have an impact on the viability of the cells. In other words, the A value may be lower than the background noise.
Moreover, for each measure, the test was performed with Ribavirin as control. The value of the inhibition percentage was checked, giving 100%.

For orientation: EC50 means the midpoint of the concentration-response curve. What is called inhibition is the share of the control response that was lost under treatment. As usually defined, the IC50 is the concentration needed to halve the response being measured. For `Cc1cc(OC(C)C)ccc1Nc1ccc2cccc(Cl)c2n1` [Compound 10, 8-chloro-N-(4-isopropoxy-2-methylphenyl)quinolin-2-amine], the EC50 in experiment [1] worked out at 585 nM. Besides, in experiment [2], the inhibition at 1 µM was 100% and the IC50 lay in the range of 1 to 200 nM.

As to `CCc1cc(OC(C)C)ccc1Nc1ccc2cccc(Cl)c2n1` [Compound 13, 8-chloro-N-(2-ethyl-4-isopropoxyphenyl)quinolin-2-amine], the EC50 in experiment [1] worked out at 1180 nM. Besides, in experiment [2], the inhibition at 1 µM came to 100% and the IC50 was 1 to 200 nM.

As to `Cc1cc(OC(C)C)c(C)cc1Nc1ccc2cccc(Cl)c2n1` [Compound 43, 8-chloro-N-(4-isopropoxy-2,5-dimethylphenyl)quinolin-2-amine], the EC50 in experiment [1] was 348 nM. In addition, the IC50 in experiment [2] fell in the range of 1 to 200 nM.
